Measured values published in patent publication US4593097A, “Phenazine carboxylic acid derivatives and a process for production thereof” (Kyowa Hakko Kogyo Co., Ltd., priority 1983, dated 1986).
≈ marks a conversion by molar mass, not a printed value.

Assays:
[1] = system: Staphylococcus aureus ATCC 6538P; test: Antibacterial activity by agar dilution method (pH 7.0), Staphylococcus aureus ATCC 6538P; format: cell-based; settings: ATCC6538P, read-out: Minimum Inhibitory Concentration
Excerpt: (§1) Antibacterial activities of DC-86-Y, -M, -R and -C against various bacteria determined by agar dilution method (pH 7.0) are shown in Table 2.

[2] = system: Bacillus subtilis No. 10707; test: Antibacterial activity by agar dilution method (pH 7.0), Bacillus subtilis No. 10707; format: cell-based; settings: read-out: Minimum Inhibitory Concentration
Excerpt: as §1

[3] = system: Klebsiella pneumoniae ATCC 10031; test: Antibacterial activity by agar dilution method (pH 7.0), Klebsiella pneumoniae ATCC 10031; format: cell-based; settings: ATCC10031, read-out: Minimum Inhibitory Concentration
Excerpt: as §1

Escherichia coli ATCC 26 = test: Antibacterial activity by agar dilution method (pH 7.0), Escherichia coli ATCC 26; format: cell-based; settings: ATCC26, read-out: Minimum Inhibitory Concentration
Excerpt: as §1

[4] = system: Shigella sonnei ATCC 9290; test: Antibacterial activity by agar dilution method (pH 7.0), Shigella sonnei ATCC 9290; format: cell-based; settings: ATCC9290, read-out: Minimum Inhibitory Concentration
Excerpt: as §1

[5] = system: Salmonella typhosa ATCC 9992; test: Antibacterial activity by agar dilution method (pH 7.0), Salmonella typhosa ATCC 9992; format: cell-based; settings: Salmonella enterica, pH 7, read-out: Minimum Inhibitory Concentration
Excerpt: as §1

in vivo = settings: mouse, ip
[6] = system: Sarcoma 180 ascites tumor cells; test: Anti-tumor activity against Sarcoma 180 in mice; format: in vivo, ddy male mice; settings: 24 h after transplantation, measured 7 days after transplantation
Method: 5×10^6 Sarcoma 180 ascites tumor cells were transplanted to the hypoderm of the armpit cavity of ddy male mice weighing about 20 g, one group being 6 mice. 24 hours after the transplantation, 0.2 ml of a phosphate buffer saline (PBS) solution of a test compound having various concentrations was intraperitoneally administered once. The composition of PBS is 0.8 g/dl NaCl, 0.02 g/dl KCl, […] Na2 HPO4 and 0.02 g/dl KH2 PO4 (pH 7.2). For comparison, 0.2 ml of PBS containing mitomycin C was intraperitoneally administered 24 hours after the transplantation of the tumor cells. Average tumor volume (mm^3) and T/C (T: average tumor volume of mice treated with the test compound, C: average tumor volume of mice treated with 0.2 ml of PBS intraperitoneally)were measured 7 days after the transplantation and the results shown in Table 3 were obtained.

SMILES	MIC [1] [µg/mL]	MIC [2] [µg/mL]	MIC [3] [µg/mL]	MIC (Escherichia coli ATCC 26) [µg/mL]	MIC [4] [µg/mL]	MIC [5] [µg/mL]	LD50 (in vivo) [mg/kg]	T/C (average tumor volume, treated/control) ([6]; 50 mg/kg i.p. once)	T/C (average tumor volume, treated/control) ([6]; 100 mg/kg i.p. once)	T/C (average tumor volume, treated/control) ([6]; 200 mg/kg i.p. once)	T/C (average tumor volume, treated/control) ([6]; 6 mg/kg i.p.)	T/C (average tumor volume, treated/control) ([6]; 12.5 mg/kg i.p. once)	T/C (average tumor volume, treated/control) ([6]; 25 mg/kg i.p. once)	T/C (average tumor volume, treated/control) ([6]; 5 mg/kg i.p. once)	T/C (average tumor volume, treated/control) ([6]; 10 mg/kg i.p. once)	T/C (average tumor volume, treated/control) ([6]; 20 mg/kg i.p. once)
CC(OC(=O)COC(C)(C)C)c1cccc2nc3c(C(=O)O)cccc3nc12 (centres unmarked) [DC-86-R]	3 (≈ 7.84 µM)	0.7 (≈ 1.83 µM)	> 100	> 100	> 100	> 100	250	1.06	0.87	0.86	–	–	–	–	–	–
CO[C@@]12[C@H](COC(N)=O)C3=C(C(=O)C(C)=C(N)C3=O)N1C[C@@H]1N[C@@H]12 [Mitomycin C, mitomycin C, reference compound]	–	–	–	–	–	–	–	–	–	–	0.28	–	–	–	–	–
CC(OC(=O)CCl)c1cccc2nc3c(C(=O)O)cccc3nc12 (centres unmarked) [DC-86-C]	0.2 (≈ 0.58 µM)	0.01 (≈ 0.029 µM)	> 100	> 100	10 (≈ 29 µM)	10 (≈ 29 µM)	40	dead	–	–	–	0.98	0.72	–	–	–
CC(O)c1cccc2nc3c(C(=O)O)cccc3nc12 (centres unmarked) [DC-86-Y, metal not drawn]	> 100	> 100	> 100	> 100	> 100	> 100	300	–	–	–	–	–	–	–	–	–
CC(OC(=O)CO)c1cccc2nc3c(C(=O)O)cccc3nc12 (centres unmarked) [DC-86-M]	0.3 (≈ 0.919 µM)	0.1 (≈ 0.306 µM)	100 (≈ 306 µM)	100 (≈ 306 µM)	10 (≈ 30.6 µM)	10 (≈ 30.6 µM)	20	–	–	–	–	–	–	0.97	0.82	0.36
